Experimental data taken from patent US7972390B2, “Methods for controlling crystal growth, crystallization, structures and phases in materials and systems” (GR Intellectual Reserve, LLC, priority 2003, dated 2011).

Key:
[1] = Example 8d: phenyl salicylate solubility in neon-lamp conditioned vs unconditioned acetone at room temperature; format: physicochemical; details: equilibrated about 20 hours
Procedure: Acetone (about 1 ml) was pipetted into small glass test tubes and stoppers placed in the tube. […] Tubes were conditioned under a neon lamp; (about 8 mW/cm^2) in an otherwise dark room for about 1.5 hours at about 28° C. ambient temperature. Tubes were also placed simultaneously in an incubator at about 28° C. for about 1.5 hours.
Phenyl salicylate (about 3.50 grams) was added to each tube leaving a layer undissolved on the bottom of each tube. The solutions were allowed to equilibrate overnight (about 20 hours). Solution was filtered over the crystals and 0.500 ml pipetted into fresh tubes.
After the acetone evaporated, dry weights of phenyl salicylate per ml dissolved in conditioned and unconditioned acetone were determined.

[2] = Example 8c: sugar solubility in sodium-lamp conditioned vs control water at room temperature; format: physicochemical; details: for Percent sugar by weight: 23.5° C.
Procedure: Source, Greeneville Municipal Water supply, Greeneville, Tenn. […] Length 12″.
One beaker “KK” was placed under a sodium lamp 112 for about three hours, as configured in FIG. 97f, while the other Beaker “IL” functioning as the control was placed in an incubator for about three hours at an internal temperature of about 28° C.
Sugar (about 300 grams) was then added to each beaker and stirred.

Row | Compound | Average amount of phenyl salicylate dissolved ([1]; acetone conditioned under neon lamp about 1.5 hours) [g/mL] | Average amount of phenyl salicylate dissolved ([1]; unconditioned acetone (incubator about 1.5 hours)) [g/mL] | Percent sugar by weight ([2]; Beaker KK: water under Na lamp three hours) [%] | Percent sugar by weight ([2]; Beaker LL: control water 3 hours in incubator) [%] | More sucrose by weight dissolved by conditioned water than by unconditioned control water ([2]; after three hours exposure of the water to the sodium lamp)
1 | O=C(Oc1ccccc1)c1ccccc1O [phenyl salicylate, Phenyl salicylate] | 0.78 | 0.68 |  |  | 
2 | OC[C@H]1O[C@@](CO)(O[C@H]2O[C@H](CO)[C@@H](O)[C@H](O)[C@H]2O)[C@@H](O)[C@@H]1O [sucrose, Sucrose] |  |  | 39.1 | 36.7 | about 2.4%
